Here are results for 11 molecules from patent US11021470B2, “2-substituted quinazoline compounds comprising a substituted heterocyclic group and methods of use thereof” (Araxes Pharma LLC, priority 2015, dated 2021).

A short description of data set [1]: Whole blood stability, monkey. The class given is in vitro ADME. Particulars: 37° C.; for half-life at 5 µM: read-out: Whole Blood Stability (T1/2) (converted). The protocol: (§1) Representative compounds of the invention were tested for their whole blood stability as follows:
(§2) Test compounds were prepared as a 500 μM stock solution in DMSO (Adding 10 μl of 10 mM DMSO stock solution to 190 μl of 100% DMSO). Whole blood was thawed on ice. A whole blood plate was prepared by adding 460 μl of the whole blood (different species as needed) to a 96-well in ml deep well plate. The whole blood plate was preincubated at 37° C. for 10 min. 4 μl of compound solution and 396 μl of whole blood was added to the plate and mixed thoroughly. Each sample was aliquoted (30 μl) to the incubation plate (cluster tubes) and quenched at time zero with ice-cold 100% ACN, and the incubation plates were added to the 37° C. incubator (200 μl).
(§3) The time zero sample was maintained at 4° C. until centrifuged. All other samples were quench at different time points (1, 2, 4 hr), vortexed for 30 seconds and centrifuged at 3500 rpm for 15 min at 4° C. 30 μl of supernatant was added to 170 μl 0.1% FA aqueous solution and the sample was analyzes by LC/MS/MS.

Data set [2] can be described thus: Whole blood stability, dog. The class given is in vitro ADME. As to conditions: 37° C.; for half-life at 5 µM: read-out: Whole Blood Stability (T1/2) (converted). On the procedure: as §1, §2, §3
Data set [3] deals with T1, KRAS G12C 1-169, his-tagged protein, GDP-loaded (Homo sapiens, UniProt P01116, G12C).
T1 construct: KRAS G12C 1-169, his-tagged protein, GDP-loaded
T1 sequence (P01116 1-169 isoform P01116-2 G12C): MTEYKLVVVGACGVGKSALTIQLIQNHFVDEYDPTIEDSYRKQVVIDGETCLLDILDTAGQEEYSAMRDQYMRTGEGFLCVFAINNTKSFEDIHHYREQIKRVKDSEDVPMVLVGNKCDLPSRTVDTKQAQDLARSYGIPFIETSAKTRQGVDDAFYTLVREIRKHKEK
The data set is described as follows: KRAS G12C covalent binding (% modification) by mass spectrometry, ten or three minute incubation. Particulars: covalent binding to KRAS G12C after a ten minute incubation period. An outline of the steps: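 GDP-loaded protein in 20 mM Hepes, 150 mM NaCl, 1 mM MgCl2 was incubated with compound (final 100, 30 or 10 μM; 2% DMSO) at room temperature, then quenched with formic acid. Intact-protein LC-MS with charge-envelope deconvolution gave masses and intensities of modified and unmodified species.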

SMILES strings stand for the structures.

In the case of `C=CC(=O)N1C[C@H](C)N(c2nc(N3CC(N(C)C)C3)nc3c(F)c(-c4c(O)cccc4F)c(Cl)cc23)C[C@H]1C` (atropisomer, axis not shown) [Compound 52, 1-((2R,5S)-4-((S)-6-chloro-2-(3-(dimethylamino)azetidin-1-yl)-8-fluoro-7-(2-fluoro-6-hydroxyphenyl)quinazolin-4-yl)-2,5-dimethylpiperazin-1-yl)prop-2-en-1-one], the half-life at 5 µM was 408 min in data set [1] and 306 min in data set [2]. The Binding % entry in data set [3] is “+++ (+++ indicates binding activity greater than 90%)”.

Take `C=CC(=O)N1CCN(c2nc(N3CC(N(C)C)C3)nc3c(F)c(-c4c(O)cccc4F)c(Cl)cc23)C[C@H]1C` (atropisomer, axis not shown) [Compound 60, 1-((R)-4-((S)-6-chloro-2-(3-(dimethylamino)azetidin-1-yl)-8-fluoro-7-(2-fluoro-6-hydroxyphenyl)quinazolin-4-yl)-2-methylpiperazin-1-yl)prop-2-en-1-one]: the figures for the half-life at 5 µM in data set [1] and in data set [2] were 87 min and 138 min, respectively.

Take `C=CC(=O)N1CCN(c2nc(OCCN3CC(F)(F)C3)nc3c(F)c(-c4c(O)cccc4F)c(Cl)cc23)C[C@H]1C` (atropisomer, axis not shown) [Compound 63, 1-((R)-4-((S)-6-chloro-2-(2-(3,3-difluoroazetidin-1-yl)ethoxy)-8-fluoro-7-(2-fluoro-6-hydroxyphenyl)quinazolin-4-yl)-2-methylpiperazin-1-yl)prop-2-en-1-one]: the results for the half-life at 5 µM in data set [1] and in data set [2] were 72 min and 78 min, respectively.

As to `C=CC(=O)N1CCN(c2nc(N3CC(N(C)C)C3)nc3c(F)c(-c4c(C)ccc5cn[nH]c45)c(Cl)cc23)C[C@H]1C` (atropisomer, axis not shown) [Compound 70, 1-((R)-4-((R)-6-chloro-2-(3-(dimethylamino)azetidin-1-yl)-8-fluoro-7-(6-methyl-1H-indazol-7-yl)quinazolin-4-yl)-2-methylpiperazin-1-yl)prop-2-en-1-one], the half-life at 5 µM in data set [1] is 78 min; in data set [2] it was 180 min.

With `C=CC(=O)N1C[C@H](C)N(c2nc(N3CC(N(C)C)C3)nc3c(F)c(-c4c(C)ccc5cn[nH]c45)c(Cl)cc23)C[C@H]1C` (atropisomer, axis not shown) [Compound 72, 1-((2R,5S)-4-((R)-6-chloro-2-(3-(dimethylamino)azetidin-1-yl)-8-fluoro-7-(6-methyl-1H-indazol-7-yl)quinazolin-4-yl)-2,5-dimethylpiperazin-1-yl)prop-2-en-1-one], the entries for the “Whole Blood Stability (T1/2)” value in data set [1] and in data set [2] were 3.9 h and 5.95 h, respectively. Also, the Binding % result in data set [3] is reported as “+++ (+++ indicates binding activity greater than 90%)”.

`C=CC(=O)N1C[C@H](C)N(c2nc(OCCN(CC)CC)nc3c(F)c(-c4c(O)cccc4F)c(Cl)cc23)C[C@H]1C` (atropisomer, axis not shown) [Compound 75, 1-((2R,5S)-4-((S)-6-chloro-2-(2-(diethylamino)ethoxy)-8-fluoro-7-(2-fluoro-6-hydroxyphenyl)quinazolin-4-yl)-2,5-dimethylpiperazin-1-yl)prop-2-en-1-one]: the figures for the half-life at 5 µM in data set [1] and in data set [2] were 234 min and 288 min, respectively.

For `C=CC(=O)N1CCN(c2nc(OCCN(CC)CC)nc3c(F)c(-c4c(O)cccc4F)c(Cl)cc23)CC1` [A, reference compound], the half-life at 5 µM in data set [1] was 6 min; in data set [2], 36 min.

Consider `C=CC(=O)N1CCN(c2nc(N3CC(N(C)C)C3)nc3c(F)c(-c4c(O)cccc4F)c(Cl)cc23)CC1` [B, reference compound], for which the half-life at 5 µM is 6 min in data set [1] and 42 min in data set [2].

Regarding `C=CC(=O)N1CCN(c2nc(OCCN3CC(F)(F)C3)nc3c(F)c(-c4c(O)cccc4F)c(Cl)cc23)CC1` [C, reference compound], the half-life at 5 µM is 12 min in data set [1] and 36 min in data set [2].

Take `C=CC(=O)N1C[C@H](C)N(c2nc(OCCN3CC(F)(F)C3)nc3c(F)c(-c4c(O)cccc4F)c(Cl)cc23)C[C@H]1C` [Compound 38, 1-((2R,5S)-4-(6-chloro-2-(2-(3,3-difluoroazetidin-1-yl)ethoxy)-8-fluoro-7-(2-fluoro-6-hydroxyphenyl)quinazolin-4-yl)-2,5-dimethylpiperazin-1-yl)prop-2-en-1-one]: in data set [1], the “Whole Blood Stability (T1/2)” value came to 7.8 h. In addition, the half-life at 5 µM in data set [2] is 180 min. Moreover, the Binding % entry in data set [3] is given as “+++ (+++ indicates binding activity greater than 90%)”.

As to `C=CC(=O)N1[C@H](C)CN(c2nc(N3CC(N(C)C)C3)nc3c(F)c(-c4c(O)cccc4F)c(Cl)cc23)C[C@@H]1C` [Compound 68, 1-((2R,6S)-4-((R)-6-chloro-2-(3-(dimethylamino)azetidin-1-yl)-8-fluoro-7-(2-fluoro-6-hydroxyphenyl)quinazolin-4-yl)-2,6-dimethylpiperazin-1-yl)prop-2-en-1-one], the half-life at 5 µM in data set [1] was 60 min; in data set [2], 96 min.
